In brackets after ≈: the same amount, converted by molar mass. Read-outs that look alike come from different tables or passages of the source.
Legend:
[1] = target: T1, recombinant human GST-Syk (Homo sapiens, UniProt P43405); assay: Homogeneous Time-Resolved Fluorescence (HTRF) assay for the recombinant human Syk enzyme; type: biochemical; conditions: recombinant human GST-Syk 5 pM, ATP 25 μM, read-out: IC50
T1 construct: purchased Carna Biosciences 08-176
Experimental: Syk inhibition of the compounds of Formula (I) may be determined using the following assay protocol: Homogeneous Time-Resolved Fluorescence (HTRF) Assay for the Recombinant Human Syk Enzyme: A recombinant GST-hSyk fusion protein was used to measure potency of compounds to inhibit human Syk activity. […] Final volume of the reaction was 10 μL. Phosphorylation of the peptide was allowed to proceed for 45' at room temperature. To quench the reaction and detect the phosphorylated product, 2 nM of a Europium-anti-phosphotyrosine antibody (Perkin Elmer #AD0161) and 70 nM SA-APC (Perkin-Elmer #CR130-100) were added together in 15 mM Tris pH 7.5, 40 mM EDTA, 0.01% tween 20. Final volume of the quenching solution was 10 μL. The resulting HTRF signal was measured after 30 minutes on a EnVision (Perkin-Elmer) reader using a time-resolved fluorescence protocol.

[2] = Solubility in biorelevant fasted state simulated intestinal fluid (FaSSIF); type: physicochemical
Experimental: Solubility in Biorelevant Fasted State Simulated Intestinal Fluid (FaSSIF):
A 10 mM DMSO stock solution of compound to be tested is used. A 100 μM standard solution is generated by diluting 2.5 μL of the 10 mM stock solution with 247.5 μL of diluent (10% DMSO/10% MeCN/80% MeOH, v/v/v). A solubility solution is generated by diluting 5 μL of the 10 mM stock solution with 245 μL of FaSSIF (maximum solubility approximately 200 μM). […] The equilibrated solubility solution is filtered by centrifugation (3 minutes at 4000 rpm) using a 0.45 µm filter with a polypropylene membrane. The standard solution and the filtered equilibrated solubility solution are analyzed by HPLC/DAD. The solubility value is calculated by the following equation:
Solubility=(Peak area of sample/Peak area of standard)(Standard concentration)

[3] = 25 °C, fassif, kinetic from dmso stock, Solubility

Structure (SMILES)	IC50 [1]	solubility [2, 3]	solubility ([2]; read-out: Solubility)	solubility ([2]; kinetic from dmso stock, FaSSIF, equilibrated overnight at 25° C., maximum solubility approximately 200 μM, read-out: Solubility)
COCCN(C)C(=O)OC(C)OC(=O)[C@H]1CC[C@H]([C@@](C)(O)c2ccc(-c3cc(C)cc(Nc4cc(C(F)F)ccn4)n3)cn2)CC1 (single isomer, unassigned) [Example 4-1a]	24.7 nM	40 µM (≈ 25.7 µg/mL)	–	–
Cc1cc(Nc2cc(C(F)F)ccn2)nc(-c2ccc([C@](C)(O)[C@H]3CC[C@H](C(=O)OCC[S@+](C)[O-])CC3)nc2)c1 (single isomer, unassigned) [Example 7-1b]	3.3 nM	52 µM (≈ 29.8 µg/mL)	–	–
Cc1cc(Nc2cc(C(F)F)ccn2)nc(-c2ccc([C@](C)(O)[C@H]3CC[C@H](C(=O)O[C@H]4CC[C@@H](N)CC4)CC3)nc2)c1 [Example 1-2, cis-4-Aminocyclohexyl trans-4-[(1R)-1-(6-{[4-(difluoromethyl)pyridin-2-yl]amino}-4-methyl-2,3′-bipyridin-6′-yl)-1-hydroxyethyl]cyclohexanecarboxylate]	4.2 nM	114 µM (≈ 66.1 µg/mL)	–	–
Cc1cc(Nc2cc(C(F)F)ccn2)nc(-c2ccc([C@](C)(O)[C@H]3CC[C@H](C(=O)O[C@H]4C[C@H](N)C4)CC3)nc2)c1 [Example 1-5, trans-3-Aminocyclobutyl trans-4-[(1R)-1-(6-{[4-(difluoromethyl)pyridin-2-yl]amino}-4-methyl-2,3′-bipyridin-6′-yl)-1-hydroxyethyl]cyclohexanecarboxylate]	4.4 nM	–	164 µM (≈ 90.5 µg/mL)	–
CSCCCOC(=O)[C@H]1CC[C@H]([C@@](C)(O)c2ccc(-c3cc(C)cc(Nc4cc(C(F)F)ccn4)n3)cn2)CC1 [Example 1-9, 3-(methylsulfanyl)propyl trans-4-[(1R)-1-(6-{[4-(difluoromethyl)pyridin-2-yl]amino}-4-methyl-2,3′-bipyridin-6′-yl)-1-hydroxyethyl] cyclohexanecarboxylate]	27.7 nM	43 µM (≈ 24.5 µg/mL)	–	–
Cc1cc(Nc2cc(C(F)F)ccn2)nc(-c2ccc([C@](C)(O)[C@H]3CC[C@H](C(=O)OCc4nccn4C)CC3)nc2)c1 [Example 1-11, (1-methyl-1H-imidazol-2-yl)methyl trans-4-[(1R)-1-(6-{[4-(difluoromethyl)pyridin-2-yl]amino}-4-methyl-2,3′-bipyridin-6′-yl)-1-hydroxyethyl] cyclohexanecarboxylate]	2.1 nM	57 µM (≈ 32.9 µg/mL)	–	–
Cc1cc(Nc2cc(C(F)F)ccn2)nc(-c2ccc([C@](C)(O)[C@H]3CC[C@H](C(=O)OCCC(C)(C)O)CC3)nc2)c1 [Example 1-12, 3-hydroxy-3-methylbutyl trans-4-[(1R)-1-(6-{[4-(difluoromethyl)pyridin-2-yl]amino}-4-methyl-2,3′-bipyridin-6′-yl)-1-hydroxyethyl] cyclohexanecarboxylate]	10 nM	–	–	76 µM (≈ 43.2 µg/mL)
Cc1cc(Nc2cc(C(F)F)ccn2)nc(-c2ccc([C@](C)(O)[C@H]3CC[C@H](C(=O)OCCCN(C)C)CC3)nc2)c1 [Example 1-13, 3-(dimethylamino)propyl trans-4-[(1R)-1-(6-{[4-(difluoromethyl)pyridin-2-yl]amino}-4-methyl-2,3′-bipyridin-6′-yl)-1-hydroxyethyl] cyclohexanecarboxylate]	4.4 nM	140 µM (≈ 79.5 µg/mL)	–	–
Cc1cc(Nc2cc(C(F)F)ccn2)nc(-c2ccc([C@](C)(O)[C@H]3CC[C@H](C(=O)OC[C@H]4COC(C)(C)O4)CC3)nc2)c1 [Example 1-14, [(4R)-2,2-dimethyl-1,3-dioxolan-4-yl]methyl trans-4-[(1R)-1-(6-{[4-(difluoromethyl)pyridin-2-yl]amino}-4-methyl-2,3′-bipyridin-6′-yl)-1-hydroxyethyl] cyclohexanecarboxylate]	27.6 nM	109 µM (≈ 65 µg/mL)	–	–

Second part, led by results:

IC50 [1]	solubility [2, 3]	solubility ([2]; read-out: Solubility)	Structure (SMILES)	solubility ([2]; kinetic from dmso stock, FaSSIF, equilibrated overnight at 25° C., maximum solubility approximately 200 μM, read-out: Solubility)
1 nM	156 µM (≈ 101 µg/mL)	–	Cc1cc(Nc2cc(C(F)F)ccn2)nc(-c2ccc([C@](C)(O)[C@H]3CC[C@H](C(=O)OCOC(=O)OCC[S+](C)[O-])CC3)nc2)c1 (single isomer, unassigned) [Example 7-6]	–
< 0.5 nM	–	–	Cc1cc(Nc2cc(C(F)F)ccn2)nc(-c2ccc([C@](C)(O)[C@H]3CC[C@H](C(=O)OC[N+](C)(C)C(C)c4ccccc4)CC3)nc2)c1 (stereo partly drawn) [Example 5-15, N-{[({trans-4-[(1R)-1-(6-{[4-(difluoromethyl)pyridin-2-yl]amino}-4-methyl-2,3′-bipyridin-6′-yl)-1-hydroxyethyl]cyclohexyl}carbonyl)oxy]methyl}-N,N-dimethyl-1-phenylethanaminium]	–
0.6 nM	–	–	Cc1cc(Nc2cc(C(F)F)ccn2)nc(-c2ccc([C@](C)(O)[C@H]3CC[C@H](C(=O)OC[N+]4(CC#N)CCCCC4)CC3)nc2)c1 [Example 5-16, 1-(cyanomethyl)-1-{[({trans-4-[(1R)-1-(6-{[4-(difluoromethyl)pyridin-2-yl]amino}-4-methyl-2,3′-bipyridin-6′-yl)-1-hydroxyethyl]cyclohexyl}carbonyl)oxy]methyl}piperidinium]	–
1.4 nM	–	–	CCCC[N+](C)(CCCC)COC(=O)[C@H]1CC[C@H]([C@@](C)(O)c2ccc(-c3cc(C)cc(Nc4cc(C(F)F)ccn4)n3)cn2)CC1 [Example 5-18, N-butyl-N-{[({trans-4-[(1R)-1-(6-{[4-(difluoromethyl)pyridin-2-yl]amino}-4-methyl-2,3′-bipyridin-6′-yl)-1-hydroxyethyl]cyclohexyl}carbonyl)oxy]methyl}-N-methylbutan-1-aminium]	–
0.8 nM	–	–	CCOC(=O)C[N+](C)(C)COC(=O)[C@H]1CC[C@H]([C@@](C)(O)c2ccc(-c3cc(C)cc(Nc4cc(C(F)F)ccn4)n3)cn2)CC1 [Example 5-19, N-{[({trans-4-[(1R)-1-(6-{[4-(difluoromethyl)pyridin-2-yl]amino}-4-methyl-2,3′-bipyridin-6′-yl)-1-hydroxyethyl]cyclohexyl}carbonyl)oxy]methyl}-2-ethoxy-N,N-dimethyl-2-oxoethanaminium]	–
< 0.5 nM	–	–	Cc1cc(Nc2cc(C(F)F)ccn2)nc(-c2ccc([C@](C)(O)[C@H]3CC[C@H](C(=O)OC[N+](C)(C)CCc4ccccn4)CC3)nc2)c1 [Example 5-21, N-{[({trans-4-[(1R)-1-(6-{[4-(difluoromethyl)pyridin-2-yl]amino}-4-methyl-2,3′-bipyridin-6′-yl)-1-hydroxyethyl]cyclohexyl}carbonyl)oxy]methyl}-N,N-dimethyl-2-pyridin-2-ylethanaminium]	–
0.9 nM	–	–	CC[N+](CC)(COC(=O)[C@H]1CC[C@H]([C@@](C)(O)c2ccc(-c3cc(C)cc(Nc4cc(C(F)F)ccn4)n3)cn2)CC1)C1CCCCC1 [Example 5-22, N-{[({trans-4-[(1R)-1-(6-{[4-(difluoromethyl)pyridin-2-yl]amino}-4-methyl-2,3′-bipyridin-6′-yl)-1-hydroxyethyl]cyclohexyl}carbonyl)oxy]methyl}-N,N-diethylcyclohexanaminium]	–
1 nM	–	–	Cc1cc(Nc2cc(C(F)F)ccn2)nc(-c2ccc([C@](C)(O)[C@H]3CC[C@H](C(=O)OC[N+](C)(C4CCCCC4)C4CCCCC4)CC3)nc2)c1 [Example 5-24, N-cyclohexyl-N-{[({trans-4-[(1R)-1-(6-{[4-(difluoromethyl)pyridin-2-yl]amino}-4-methyl-2,3′-bipyridin-6′-yl)-1-hydroxyethyl]cyclohexyl}carbonyl)oxy]methyl}-N-methylcyclohexanaminium]	–
2.9 nM	–	–	Cc1cc(Nc2cc(C(F)F)ccn2)nc(-c2ccc([C@](C)(O)[C@H]3CC[C@H](C(=O)OC[N+]4(C)CCN(CCO)CC4)CC3)nc2)c1 [Example 5-28, 1-{[({trans-4-[(1R)-1-(6-{[4-(difluoromethyl)pyridin-2-yl]amino}-4-methyl-2,3′-bipyridin-6′-yl)-1-hydroxyethyl]cyclohexyl}carbonyl)oxy]methyl}-4-(2-hydroxyethyl)-1-methylpiperazin-1-ium]	–
–	156 µM (≈ 87.8 µg/mL)	–	Cc1cc(Nc2cc(C(F)F)ccn2)nc(-c2ccc([C@](C)(O)[C@H]3CC[C@H](C(=O)OCn4ccnc4)CC3)nc2)c1 [Example 6-4, 1H-imidazol-1-ylmethyl trans-4-[(1R)-1-(6-{[4-(difluoromethyl)pyridin-2-yl]amino}-4-methyl-2,3′-bipyridin-6′-yl)-1-hydroxyethyl]cyclohexanecarboxylate]	–
3.3 nM	–	–	Cc1cc(Nc2cc(C(F)F)ccn2)nc(-c2ccc([C@](C)(O)[C@H]3CC[C@H](C(=O)OCC[S+](C)[O-])CC3)nc2)c1 (stereo partly drawn) [Example 7-3, 2-(methylsulfinyl)ethyl trans-4-[(1R)-1-(6-{[4-(difluoromethyl)pyridin-2-yl]amino}-4-methyl-2,3′-bipyridin-6′-yl)-1-hydroxyethyl]cyclohexane-carboxylate]	–
4.5 nM	–	–	Cc1cc(Nc2cc(C(F)F)ccn2)nc(-c2ccc([C@](C)(O)[C@H]3CC[C@H](C(=O)OCOC(=O)OCCS(C)(=O)=O)CC3)nc2)c1 [Example 7-7, ({[2-(methylsulfonyl)ethoxy]carbonyl}oxy)methyl trans-4-[(1R)-1-(6-{[4-(difluoromethyl)pyridin-2-yl]amino}-4-methyl-2,3′-bipyridin-6′-yl)-1-hydroxyethyl]cyclohexane-carboxylate]	–
